The test system of data set [1] is anesthetized thromboxane A2 challenged PAH-minipig. Put plainly: Haemodynamics in the anesthetized thromboxane challenged minipig (PAH minipig), inhaled nebulized solution: lung selectivity and duration of action. Format: in vivo, Göttingen Minipigs. The note with it: for PAP % changes vs prevalue: mean. Here is the method: Healthy Göttingen Minipigs® Ellegaard (Ellegaard, Denmark) of both sexes and having a weight of 2-6 kg were used. The animals were sedated by i.m. administration of about 25 mg/kg ketamine and about 10 mg/kg azaperone. Anaesthesia was initiated by i.v. administration of about 2 mg/kg ketamine and about 0.3 mg/kg midazolam. Maintenance of anaesthesia was by i.v. administration of about 7.5-30 mg/kg/h ketamine and about 1-4 mg/kg/h midazolam (rate of infusion 1-4 ml/kg/h) and about 150 μg/kg/h pancuronium bromide (for example Pancuronium-Actavis). After intubation, the animals were ventilated by the ventilator at a constant respiratory volume (10-12 ml/kg, 35 breaths/min; Avea®, Viasys Healthcare, USA, or Engström Carestation, GE Healthcare, Freiburg, Germany) such that an end-tidal CO2 concentration of about 5% was achieved. Ventilation was performed with room air, enriched with about 40% oxygen (normoxia). For the measurement of the haemodynamic parameters such as pulmonary arterial pressure (PAP), blood pressure (BP) and heart rate (HR), catheters were inserted into the carotid artery to measure the blood pressure, and a Swan-Ganz® catheter was introduced in a flow-directed manner via the jugular vein into the pulmonary artery. The haemodynamic signals were recorded and evaluated by means of pressure transducers (Combitransducer, B. Braun, Melsungen, Germany)/amplifiers and Ponemah® as data acquisition software.
After the instruments have been placed into the animals, continuous infusion of a thromboxane A2 analog was initiated to increase the pulmonary arterial pressure. About 0.3-0.75 μg/kg/min of 9,11-didesoxy-9α,11α-epoxymethanoprostaglandine F2α (U-44069; Sigma, cat. no. D0400, or Cayman Chemical Company, cat. no. 16440), dissolved in physiological saline, were infused to achieve an increase of the mean pulmonary arterial pressure to values of over 25 mmHg. 30 minutes after the start of the infusion, a plateau was reached, and the experiment was started.
The test substances were administered as i.v. infusion or by inhalation. For the preparation of the solution for inhalation, the following procedure was adopted: For an animal having a weight of 4 kg, to prepare the stock solution (300 μg/kg), 1.2 mg of the test compound were weighed out and dissolved in a total volume of 3 ml (1% DMSO, 99% 0.2% strength citric acid solution, 1 n aqueous sodium hydroxide solution to adjust the pH to 8). The solution was then diluted to the concentration employed using 0.2% strength citric acid which had been adjusted to pH 8 beforehand with aqueous sodium hydroxide solution. In each test, 3 ml of the solution of test compound per 4 kg animal were nebulized in the inhalation arm of the respiratory circuit using the Aeroneb® Pro nebulizer system. The mean nebulization time was about 7 min from the start of the nebulization.
With respect to a prediction of the duration of action for human studies comparative example 11 was compared in the PAH minipig model after inhaled application to Ventavis® (=Iloprost, 10 μg/kg nominal dose), which we used as a clinical reference. […] Therefore, the duration of action is more than 6 times longer compared to Ventavis in this preclinical animal model.

The test system of data set [2] is plasma proteins. As to the kind of experiment: Protein binding via ultrafiltration assay. Format: in vitro ADME. The text has this:
For this assay, filter membranes of 30 kDa pore size were used to separate plasma and protein free ultrafiltrate. The driving force for filtration was applied by centrifugation. Prior to protein binding studies, the adsorption (recovery) of the test compound to the ultra-filtration device and the ability of the test compound to pass the filter membrane was checked by filtration of the test compound dissolved in buffer at four concentrations. Sufficient stability of the test compound and an almost complete recovery (≥90% of the actual amount of compound used for the experiment) was a prerequisite for the use of the ultrafiltration method. The amount of organic solvent added to the plasma may not exceed 2% of the total incubation volume. Blood samples were collected in heparinized tubes either pooled (all species except human and monkey) or individually (human and monkey) and were used within 24 h for incubation experiments in blood. Plasma was prepared by centrifugation of the heparinized blood samples. Plasma was stored at −15° C. until use. Plasma stability, Compound recovery, unspecific binding to the membrane and the test device as well as partitioning between blood cells and plasma were controlled. The substance-associated radioactivity was determined by liquid scintillation counting. With this analytical method, it is not possible to distinguish between unchanged substance and radioactive metabolites. For details of the radioanalytical methods and the work up of the samples see Goeller et al. (3). A description of the ultrafiltration method in general was published by Zhang et al. In 2012 (4).

Data set [3] concerns plasma proteins. As to the kind of experiment: Protein binding via Transil assay, human plasma. Format: in vitro ADME. The note with it: all tested species where comparative results are given. The text has this: The distribution of a test substance between Transil® (phosphatidylcholine lipid bilayers immobilized on silica beads) and plasma is a characteristic feature of any pharmaceutical compound and is dependent on its extent of binding to plasma proteins. By comparing the distribution between Transil® and buffer with the distribution between Transil® and plasma of any species of interest, the unbound fraction in the plasma of the respective animal species can be calculated in vitro. The respective plasma and buffer concentrations were determined via a radioactivity analysis. A detailed description of the method and its validation was published by Schuhmacher et al. (2).

Data set [4] is described as follows: Particle size distribution by laser diffraction (D.4). The note with it: after micronization, monohydrate II as starting material, 50 mm spiral jet mill; dry measurement 4 bar. Format: physicochemical. The protocol:
All measurements cited in the above tables were obtained by laser diffraction with dry dispersion using compressed air. Measuring in aqueous suspension with surfactants may lead to smaller particle sizes (×90 up to 1 μm smaller).
The particle size analysis data are usually reported as cumulative undersized distribution by volume. The symbol x is used to denote the particle size, which is defined as diameter of a volume equivalent sphere. Most common characteristic values are calculated from the particle size distribution by interpolation. Frequently used are the particle sizes at the undersize values of 10%, 50% and 90% of the volume distribution, denoted as ×10, ×50 and ×90. ×50 is also known as median particle size. The symbol dis widely used to designate the particle size, thus the symbol x may be replaced by the symbol d.

Data set [5] concerns patients with pulmonary hypertension. Particulars: clinical studies; cited from earlier work.

In the case of `O=C(O)c1ccc(CCN(CCc2cc(F)ccc2OCc2ccc(-c3nc4cc(Cl)ccc4o3)cc2)C2CCCc3nc(C(=O)O)ccc32)cc1` (single isomer, unassigned) [compound 4, 5-{[2-(4-Carboxyphenyl)ethyl][2-(2-{[4-(5-chloro-1,3-benzoxazol-2-yl)benzyl]oxy}-5-fluorophenyl)-ethyl]amino}-5,6,7,8-tetrahydroquinoline-2-carboxylic Acid, reference compound], the duration of action entry in data set [1] (minipig model, inhaled) was “sufficient duration of action”.
Consider `CC#CCC(C)[C@H](O)/C=C/[C@@H]1[C@H]2C/C(=C/CCCC(=O)O)C[C@H]2C[C@H]1O` (stereo partly drawn) [Ventavis ®], for which the “PAP % changes vs prevalue” is recorded as 0% in data set [1] (inhaled, 10 μg/kg nominal dose, time 0 min); −30.3% in data set [1] (inhaled, 10 μg/kg nominal dose, time 10 min); −20.7% in data set [1] (inhaled, 10 μg/kg nominal dose, time 20 min); −6.9% in data set [1] (inhaled, 10 μg/kg nominal dose, time 30 min); 1.7% in data set [1] (inhaled, 10 μg/kg nominal dose, time 40 min); 4.9% in data set [1] (inhaled, 10 μg/kg nominal dose, time 50 min).
Regarding `COC(=O)N(C)c1c(N)nc(-c2nn(Cc3ccccc3F)c3ncccc23)nc1N` [Comparative example 2, Methyl-4,6-diamino-2-[1-(2-fluorobenzyl)-1H-pyrazolo[3,4-b]pyridine-3-yl]-5-pyrimidinyl(methyl)carbamate], the “Fraction unbound (%)” value turned out to be 17.1% in data set [2] (Dog Beagle plasma), 4.97% in data set [2] (Human (male) plasma) and 15.7% in data set [2] (Rat Wistar plasma).
In the case of `O=C(O)c1ccc(CCN(CCc2ccccc2OCc2ccc(-c3ccc(C(F)(F)F)cc3)cc2Cl)[C@H]2CCCc3nc(C(=O)O)ccc32)cc1` [Example 1, (5S)—{[2-(4-Carboxyphenyl)ethyl][2-(2-{[3-chloro-4′-(trifluoromethyl)biphenyl-4-yl]methoxy}phenyl)-ethyl]amino}-5,6,7,8-tetrahydroquinoline-2-carboxylic Acid Monohydrate II], the “free fractions (comparison)” value in data set [3] is recorded as “lowest free fractions”.
Regarding `O=C(O)CCCCN(CCc1cc(F)ccc1OCc1ccc(-c2nc3cc(Cl)ccc3o2)cc1)C1CCCc2nc(C(=O)O)ccc21` (single isomer, unassigned) [compound 3, (5)-{(4-carboxybutyl)[2-(2-{[4-(5-chloro-1,3-benzoxazol-2-yl)benzyl]oxy}-5-fluorophenyl)ethyl]amino}-5,6,7,8-tetrahydroquinoline-2-carboxylic Acid, reference compound], in data set [1] (inhaled application), the “effect on PAP completely resolved after” value was found to be 120 min. For the same compound, in data set [1] (nebulized solution), the “time of maximal effect on PAP after inhaled application” value was found to be 30 min.
As to `CCOC(=O)c1ccc2c(n1)CCCC2NCCc1ccccc1OCc1ccc(-c2ccc(C(F)(F)F)cc2)cc1Cl` (single isomer, unassigned) [Example 8a, Ethyl 5-{[2-(2-{[3-chloro-4′-(trifluoromethyl)biphenyl-4-yl]methoxy}phenyl)ethyl]amino}-5,6,7,8-tetrahydroquinoline-2-carboxylate], in data set [4], the “PSD X10” value is “X10: 0.2 μm,”, the “PSD X50” value is listed as “X50: 1.7 μm,” and the “PSD X90” value is listed as “X90: 4.2 μm”.
For the compound `CC#CCC(C)[C@H](O)/C=C/[C@@H]1[C@H]2C/C(=C/CCCC(=O)O)C[C@H]2C[C@H]1O` (stereo partly drawn) [Ventavis, reference compound], the “duration of action on haemodynamics (PVR)” value in data set [5] is “about 60 min”. In data set [1] (10 μg/kg nominal dose, inhaled), the “maximal duration of action” value is listed as “about 40 min”.
